What was measured:
[1] = molecular target: T1, Amine oxidase [flavin-containing] A (Rattus norvegicus, UniProt P21396); assay: Competitive inhibition of rat liver MAO-A after 60 mins using p-tyramine as substrate by spectrophotometry
T1 sequence (P21396 whole entry): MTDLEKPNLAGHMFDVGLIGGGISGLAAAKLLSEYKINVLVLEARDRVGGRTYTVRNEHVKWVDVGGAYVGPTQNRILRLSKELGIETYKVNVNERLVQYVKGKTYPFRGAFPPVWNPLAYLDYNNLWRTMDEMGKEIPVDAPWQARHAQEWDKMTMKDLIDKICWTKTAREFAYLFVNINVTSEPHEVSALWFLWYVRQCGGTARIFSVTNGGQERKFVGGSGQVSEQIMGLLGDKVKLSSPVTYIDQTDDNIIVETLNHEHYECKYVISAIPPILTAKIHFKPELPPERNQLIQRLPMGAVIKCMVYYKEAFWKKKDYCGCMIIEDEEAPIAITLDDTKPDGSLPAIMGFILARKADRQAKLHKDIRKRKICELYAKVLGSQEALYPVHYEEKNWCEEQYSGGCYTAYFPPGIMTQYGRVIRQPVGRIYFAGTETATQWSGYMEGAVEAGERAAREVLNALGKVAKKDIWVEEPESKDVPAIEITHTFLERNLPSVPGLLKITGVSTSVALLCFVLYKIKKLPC

[2] = molecular target: T2, Amine oxidase [flavin-containing] A (Homo sapiens, UniProt P21397); assay: Competitive inhibition of human recombinant MAO-A after 60 mins using p-tyramine as substrate by spectrophotometry
T2 sequence (P21397 whole entry): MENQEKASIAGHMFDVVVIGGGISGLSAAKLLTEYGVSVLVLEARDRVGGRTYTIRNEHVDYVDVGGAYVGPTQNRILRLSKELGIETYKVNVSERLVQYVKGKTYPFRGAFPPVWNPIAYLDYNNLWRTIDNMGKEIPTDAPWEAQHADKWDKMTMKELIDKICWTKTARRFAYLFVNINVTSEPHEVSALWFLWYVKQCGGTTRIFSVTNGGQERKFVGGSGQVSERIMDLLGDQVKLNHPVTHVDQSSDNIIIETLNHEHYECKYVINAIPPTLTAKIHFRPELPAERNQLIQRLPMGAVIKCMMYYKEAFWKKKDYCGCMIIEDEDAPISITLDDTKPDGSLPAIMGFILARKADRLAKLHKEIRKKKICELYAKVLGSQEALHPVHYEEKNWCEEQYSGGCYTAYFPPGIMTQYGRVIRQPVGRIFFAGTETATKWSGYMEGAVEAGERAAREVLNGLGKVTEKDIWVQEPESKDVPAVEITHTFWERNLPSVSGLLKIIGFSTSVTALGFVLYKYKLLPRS

[3] = molecular target: T3, Amine oxidase [flavin-containing] B (Rattus norvegicus, UniProt P19643); assay: Competitive inhibition of rat liver MAO-B after 60 mins using p-tyramine as substrate by spectrophotometry
T3 sequence (P19643 whole entry): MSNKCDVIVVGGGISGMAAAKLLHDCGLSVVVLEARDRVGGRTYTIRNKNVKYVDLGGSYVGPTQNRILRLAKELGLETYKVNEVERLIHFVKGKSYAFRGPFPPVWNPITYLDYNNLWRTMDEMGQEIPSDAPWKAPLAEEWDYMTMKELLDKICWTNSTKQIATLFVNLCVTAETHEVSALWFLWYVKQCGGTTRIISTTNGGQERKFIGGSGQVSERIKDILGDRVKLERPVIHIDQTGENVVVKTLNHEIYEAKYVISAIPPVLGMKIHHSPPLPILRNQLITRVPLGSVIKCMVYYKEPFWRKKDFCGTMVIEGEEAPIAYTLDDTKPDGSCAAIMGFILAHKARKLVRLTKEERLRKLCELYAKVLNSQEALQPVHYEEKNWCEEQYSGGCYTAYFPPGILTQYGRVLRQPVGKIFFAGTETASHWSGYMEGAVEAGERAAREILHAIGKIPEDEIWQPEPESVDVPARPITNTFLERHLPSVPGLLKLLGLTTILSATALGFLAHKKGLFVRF

[4] = molecular target: T4, Amine oxidase [flavin-containing] B (Homo sapiens, UniProt P27338)
T4 sequence (P27338 whole entry): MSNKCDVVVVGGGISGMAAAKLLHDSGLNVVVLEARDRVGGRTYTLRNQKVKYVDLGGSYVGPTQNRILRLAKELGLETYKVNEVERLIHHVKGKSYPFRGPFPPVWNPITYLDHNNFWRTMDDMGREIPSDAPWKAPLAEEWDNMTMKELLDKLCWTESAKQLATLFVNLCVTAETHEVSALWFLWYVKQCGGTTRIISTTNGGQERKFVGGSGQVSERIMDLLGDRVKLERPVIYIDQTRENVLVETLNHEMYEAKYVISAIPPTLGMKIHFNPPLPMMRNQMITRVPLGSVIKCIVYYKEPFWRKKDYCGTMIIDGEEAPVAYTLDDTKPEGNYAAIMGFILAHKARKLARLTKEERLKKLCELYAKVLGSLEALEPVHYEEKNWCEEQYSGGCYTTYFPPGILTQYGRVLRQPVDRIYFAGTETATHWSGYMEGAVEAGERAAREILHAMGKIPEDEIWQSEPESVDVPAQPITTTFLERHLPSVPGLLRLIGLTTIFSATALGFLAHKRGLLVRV
Description: Competitive inhibition of human recombinant MAO-B after 60 mins using p-tyramine as substrate by spectrophotometry

SMILES | Ki [1] | Ki [2] | Ki [3] | Ki [4]
O=[N+]([O-])c1cccc(C2CC(c3c4ccccc4cc4ccccc34)=NN2)c1 (stereo not drawn) | 43.9 nM | 32.2 nM | 0.45 nM | 0.31 nM
O=[N+]([O-])c1ccc(C2CC(c3c4ccccc4cc4ccccc34)=NN2)cc1 (stereo not drawn) | 20.1 nM | 17.1 nM | 2.3 nM | 1.15 nM
Oc1ccc(C2CC(c3c4ccccc4cc4ccccc34)=NN2)cc1 (stereo not drawn) | 385 nM | 225 nM | 6.75 nM | 7.51 nM
Clc1ccc(C2CC(c3c4ccccc4cc4ccccc34)=NN2)cc1 (stereo not drawn) | 320 nM | 281 nM | 2.1 nM | 1.8 nM
COc1ccc(C2CC(c3c4ccccc4cc4ccccc34)=NN2)cc1 (stereo not drawn) | 230 nM | 301 nM | – | –
c1ccc(C2CC(c3c4ccccc4cc4ccccc34)=NN2)nc1 (stereo not drawn) | 242 nM | 205 nM | 9.91 nM | 5.75 nM
Oc1ccc(C2CC(c3c4ccccc4cc4ccccc34)=NN2)c(O)c1 (stereo not drawn) | 95.6 nM | 81.5 nM | 4.77 nM | 5.54 nM
Cc1ccc(C2CC(c3c4ccccc4cc4ccccc34)=NN2)cc1 (stereo not drawn) | 389 nM | 250 nM | 3.8 nM | 3.56 nM
Oc1ccccc1C1CC(c2c3ccccc3cc3ccccc23)=NN1 (stereo not drawn) | 77.6 nM | 69.9 nM | 5.91 nM | 7.35 nM
c1ccc(C2CC(c3c4ccccc4cc4ccccc34)=NN2)cc1 (stereo not drawn) | 397 nM | 332 nM | 3.43 nM | 4.21 nM

Source: ChEMBL document CHEMBL1759975, “Development of selective and reversible pyrazoline based MAO-B inhibitors: virtual screening, synthesis and biological evaluation” (Bioorg Med Chem Lett, 2011)
